Measured values: PMC7156458, “Synthetic biology based construction of biological activity-related library of fungal decalin-containing diterpenoid pyrones” (Nature Communications, 2020)

Biological target: Aβ42 (Homo sapiens, UniProt P05067)
Test: Th-T (thioflavin-T) assay of Aβ42 aggregation
Type: biochemical
Conditions: for Th-T fluorescence of Aβ42 (sheet Fig. 7a), mean of three wells: head suffix _50 (concentration 50); for Th-T assay plate reading, mean of three wells (Supplementary Fig. 47): source data, Ab alone and No Ab as controls; for Th-T fluorescence, mean of three wells: Supplementary Fig. 47 source data

Aβ42, sequence (P05067 672-713): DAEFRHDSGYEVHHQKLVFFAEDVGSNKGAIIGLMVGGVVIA

C=C1CC[C@@H]2[C@](C)(CC[C@H]3O[C@H](C=C(C)C)C[C@@]23C)[C@@H]1Cc1c(OC)oc(CO)c(C(=O)OC)c1=O [Compound 21]
Th-T fluorescence of Aβ42 (sheet Fig. 7a), mean of three wells (reading M73): 0.2746 | Th-T fluorescence of Aβ42 (sheet Fig. 7a), mean of three wells (reading M74): 0.2806 | Th-T fluorescence of Aβ42 (sheet Fig. 7a), mean of three wells (reading M75): 0.286 | Th-T fluorescence of Aβ42 (sheet Fig. 7a), mean of three wells (reading M76): 0.2937 | Th-T fluorescence of Aβ42 (sheet Fig. 7a), mean of three wells (reading M77): 0.3019 | Th-T fluorescence of Aβ42 (sheet Fig. 7a), mean of three wells (reading M78): 0.3119 | Th-T fluorescence of Aβ42 (sheet Fig. 7a), mean of three wells (reading M79): 0.3191 | Th-T fluorescence of Aβ42 (sheet Fig. 7a), mean of three wells (reading M80): 0.3266 | Th-T fluorescence of Aβ42 (sheet Fig. 7a), mean of three wells (reading M81): 0.339 | Th-T fluorescence of Aβ42 (sheet Fig. 7a), mean of three wells (reading M82): 0.3487 | Th-T fluorescence of Aβ42 (sheet Fig. 7a), mean of three wells (reading M83): 0.3612 | Th-T fluorescence of Aβ42 (sheet Fig. 7a), mean of three wells (reading M84): 0.3714 | Th-T assay plate reading, mean of three wells (Supplementary Fig. 47) (measurement M1): 0.221 | Th-T assay plate reading, mean of three wells (Supplementary Fig. 47) (measurement M2): 0.2228 | Th-T assay plate reading, mean of three wells (Supplementary Fig. 47) (measurement M3): 0.2221 | Th-T assay plate reading, mean of three wells (Supplementary Fig. 47) (measurement M4): 0.222 | Th-T assay plate reading, mean of three wells (Supplementary Fig. 47) (measurement M5): 0.2108 | Th-T assay plate reading, mean of three wells (Supplementary Fig. 47) (measurement M6): 0.2062 | Th-T assay plate reading, mean of three wells (Supplementary Fig. 47) (measurement M7): 0.1997 | Th-T assay plate reading, mean of three wells (Supplementary Fig. 47) (measurement M8): 0.1959 | Th-T assay plate reading, mean of three wells (Supplementary Fig. 47) (measurement M9): 0.193 | Th-T assay plate reading, mean of three wells (Supplementary Fig. 47) (measurement M10): 0.1931 | Th-T assay plate reading, mean of three wells (Supplementary Fig. 47) (measurement M11): 0.1918 | Th-T assay plate reading, mean of three wells (Supplementary Fig. 47) (measurement M12): 0.1925 | Th-T assay plate reading, mean of three wells (Supplementary Fig. 47) (measurement M13): 0.1929 | Th-T assay plate reading, mean of three wells (Supplementary Fig. 47) (measurement M14): 0.1925 | Th-T assay plate reading, mean of three wells (Supplementary Fig. 47) (measurement M15): 0.1938 | Th-T assay plate reading, mean of three wells (Supplementary Fig. 47) (measurement M16): 0.1946 | Th-T fluorescence, mean of three wells (Fig. 7a) (reading M107, compound at 10 (head suffix _10)): 1.6819 | Th-T fluorescence, mean of three wells (Fig. 7a) (reading M107, compound at 20 (head suffix _20)): 0.9322 | Th-T fluorescence, mean of three wells (Fig. 7a) (reading M107, compound at 50 (head suffix _50)): 0.4795 | Th-T fluorescence, mean of three wells (Fig. 7a) (reading M108, compound at 10 (head suffix _10)): 1.643 | Th-T fluorescence, mean of three wells (Fig. 7a) (reading M108, compound at 20 (head suffix _20)): 0.9316 | Th-T fluorescence, mean of three wells (Fig. 7a) (reading M108, compound at 50 (head suffix _50)): 0.4805 | Th-T fluorescence, mean of three wells (Fig. 7a) (reading M109, compound at 10 (head suffix _10)): 1.641 | Th-T fluorescence, mean of three wells (Fig. 7a) (reading M109, compound at 20 (head suffix _20)): 0.9416 | Th-T fluorescence, mean of three wells (Fig. 7a) (reading M109, compound at 50 (head suffix _50)): 0.4841 | Th-T fluorescence, mean of three wells (Fig. 7a) (reading M110, compound at 10 (head suffix _10)): 1.6563 | Th-T fluorescence, mean of three wells (Fig. 7a) (reading M110, compound at 20 (head suffix _20)): 0.9358 | Th-T fluorescence, mean of three wells (Fig. 7a) (reading M110, compound at 50 (head suffix _50)): 0.4823 | Th-T fluorescence, mean of three wells (Fig. 7a) (reading M111, compound at 10 (head suffix _10)): 1.67 | Th-T fluorescence, mean of three wells (Fig. 7a) (reading M111, compound at 20 (head suffix _20)): 0.9311 | Th-T fluorescence, mean of three wells (Fig. 7a) (reading M111, compound at 50 (head suffix _50)): 0.4866 | Th-T fluorescence, mean of three wells (Fig. 7a) (reading M112, compound at 10 (head suffix _10)): 1.658 | Th-T fluorescence, mean of three wells (Fig. 7a) (reading M112, compound at 20 (head suffix _20)): 0.9334 | Th-T fluorescence, mean of three wells (Fig. 7a) (reading M112, compound at 50 (head suffix _50)): 0.4858 | Th-T fluorescence, mean of three wells (Fig. 7a) (reading M113, compound at 10 (head suffix _10)): 1.671 | Th-T fluorescence, mean of three wells (Fig. 7a) (reading M113, compound at 20 (head suffix _20)): 0.9626 | Th-T fluorescence, mean of three wells (Fig. 7a) (reading M113, compound at 50 (head suffix _50)): 0.4847 | Th-T fluorescence, mean of three wells (Fig. 7a) (reading M114, compound at 10 (head suffix _10)): 1.656 | Th-T fluorescence, mean of three wells (Fig. 7a) (reading M114, compound at 20 (head suffix _20)): 0.941 | Th-T fluorescence, mean of three wells (Fig. 7a) (reading M114, compound at 50 (head suffix _50)): 0.488 | Th-T fluorescence, mean of three wells (Fig. 7a) (reading M115, compound at 10 (head suffix _10)): 1.673 | Th-T fluorescence, mean of three wells (Fig. 7a) (reading M115, compound at 20 (head suffix _20)): 0.9605 | Th-T fluorescence, mean of three wells (Fig. 7a) (reading M115, compound at 50 (head suffix _50)): 0.4915 | Th-T fluorescence, mean of three wells (Fig. 7a) (reading M116, compound at 10 (head suffix _10)): 1.71 | Th-T fluorescence, mean of three wells (Fig. 7a) (reading M116, compound at 20 (head suffix _20)): 0.9595 | Th-T fluorescence, mean of three wells (Fig. 7a) (reading M116, compound at 50 (head suffix _50)): 0.4913 | Th-T fluorescence, mean of three wells (Fig. 7a) (reading M117, compound at 10 (head suffix _10)): 1.657 | Th-T fluorescence, mean of three wells (Fig. 7a) (reading M117, compound at 20 (head suffix _20)): 0.9521 | Th-T fluorescence, mean of three wells (Fig. 7a) (reading M117, compound at 50 (head suffix _50)): 0.4909 | Th-T fluorescence, mean of three wells (Fig. 7a) (reading M118, compound at 10 (head suffix _10)): 1.7 | Th-T fluorescence, mean of three wells (Fig. 7a) (reading M118, compound at 20 (head suffix _20)): 0.9478 | Th-T fluorescence, mean of three wells (Fig. 7a) (reading M118, compound at 50 (head suffix _50)): 0.4918 | Th-T fluorescence, mean of three wells (Fig. 7a) (reading M119, compound at 10 (head suffix _10)): 1.686 | Th-T fluorescence, mean of three wells (Fig. 7a) (reading M119, compound at 20 (head suffix _20)): 0.9445 | Th-T fluorescence, mean of three wells (Fig. 7a) (reading M119, compound at 50 (head suffix _50)): 0.4929 | Th-T fluorescence, mean of three wells (Fig. 7a) (reading M120, compound at 10 (head suffix _10)): 1.675 | Th-T fluorescence, mean of three wells (Fig. 7a) (reading M120, compound at 20 (head suffix _20)): 0.9469 | Th-T fluorescence, mean of three wells (Fig. 7a) (reading M120, compound at 50 (head suffix _50)): 0.4937 | Th-T fluorescence, mean of three wells (Fig. 7a) (reading M121, compound at 10 (head suffix _10)): 1.7005 | Th-T fluorescence, mean of three wells (Fig. 7a) (reading M121, compound at 20 (head suffix _20)): 0.9507 | Th-T fluorescence, mean of three wells (Fig. 7a) (reading M121, compound at 50 (head suffix _50)): 0.4951 | Th-T fluorescence, mean of three wells (Fig. 7a) (reading M122, compound at 10 (head suffix _10)): 1.701 | Th-T fluorescence, mean of three wells (Fig. 7a) (reading M122, compound at 20 (head suffix _20)): 0.9556 | Th-T fluorescence, mean of three wells (Fig. 7a) (reading M122, compound at 50 (head suffix _50)): 0.493 | Th-T fluorescence, mean of three wells (Fig. 7a) (reading M123, compound at 10 (head suffix _10)): 1.651 | Th-T fluorescence, mean of three wells (Fig. 7a) (reading M123, compound at 20 (head suffix _20)): 0.9514 | Th-T fluorescence, mean of three wells (Fig. 7a) (reading M123, compound at 50 (head suffix _50)): 0.4951 | Th-T fluorescence, mean of three wells (Fig. 7a) (reading M124, compound at 10 (head suffix _10)): 1.705 | Th-T fluorescence, mean of three wells (Fig. 7a) (reading M124, compound at 20 (head suffix _20)): 0.9577 | Th-T fluorescence, mean of three wells (Fig. 7a) (reading M124, compound at 50 (head suffix _50)): 0.4977 | Th-T fluorescence, mean of three wells (Fig. 7a) (reading M125, compound at 10 (head suffix _10)): 1.692 | Th-T fluorescence, mean of three wells (Fig. 7a) (reading M125, compound at 20 (head suffix _20)): 0.9599 | Th-T fluorescence, mean of three wells (Fig. 7a) (reading M125, compound at 50 (head suffix _50)): 0.4931 | Th-T fluorescence, mean of three wells (Fig. 7a) (reading M126, compound at 10 (head suffix _10)): 1.704 | Th-T fluorescence, mean of three wells (Fig. 7a) (reading M126, compound at 20 (head suffix _20)): 0.9491 | Th-T fluorescence, mean of three wells (Fig. 7a) (reading M126, compound at 50 (head suffix _50)): 0.4978 | Th-T fluorescence, mean of three wells (Fig. 7a) (reading M127, compound at 10 (head suffix _10)): 1.72 | Th-T fluorescence, mean of three wells (Fig. 7a) (reading M127, compound at 20 (head suffix _20)): 0.9533 | Th-T fluorescence, mean of three wells (Fig. 7a) (reading M127, compound at 50 (head suffix _50)): 0.4965 | Th-T fluorescence, mean of three wells (Fig. 7a) (reading M128, compound at 10 (head suffix _10)): 1.676 | Th-T fluorescence, mean of three wells (Fig. 7a) (reading M128, compound at 20 (head suffix _20)): 0.9486 | Th-T fluorescence, mean of three wells (Fig. 7a) (reading M128, compound at 50 (head suffix _50)): 0.4971 | Th-T fluorescence, mean of three wells (time-course reading M97): 1.027 | Th-T fluorescence, mean of three wells (time-course reading M98): 1.0353 | Th-T fluorescence, mean of three wells (time-course reading M99): 1.027 | Th-T fluorescence, mean of three wells (time-course reading M100): 1.023 | Th-T fluorescence, mean of three wells (time-course reading M101): 1.038 | Th-T fluorescence, mean of three wells (time-course reading M102): 1.048 | Th-T fluorescence, mean of three wells (time-course reading M103): 1.038 | Th-T fluorescence, mean of three wells (time-course reading M104): 1.045 | Th-T fluorescence, mean of three wells (time-course reading M105): 1.028 | Th-T fluorescence, mean of three wells (time-course reading M106): 1.044 | Th-T fluorescence, mean of three wells (time-course reading M107): 1.045 | Th-T fluorescence, mean of three wells (time-course reading M108): 1.036 | Th-T fluorescence, mean of three wells (time-course reading M109): 1.034 | Th-T fluorescence, mean of three wells (time-course reading M110): 1.043 | Th-T fluorescence, mean of three wells (time-course reading M111): 1.041 | Th-T fluorescence, mean of three wells (time-course reading M112): 1.036 | Th-T fluorescence, mean of three wells (time-course reading M113): 1.022 | Th-T fluorescence, mean of three wells (time-course reading M114): 1.039 | Th-T fluorescence, mean of three wells (time-course reading M115): 1.052 | Th-T fluorescence, mean of three wells (time-course reading M116): 1.042
